Test results reported in US20190381127A1, “COMBINATION THERAPY WITH A6, CHEMOTHERAPEUTIC AGENTS, RADIATION THERAPY, OR A COMBINATION THEREOF FOR THE TREATMENT OF CANCER” (Splash Pharmaceuticals, Inc., priority 2016, published 2019).

Legend:
[1] = system: human breast and ovarian cancer cell lines; experiment: Boyden chamber chemotaxis; assay type: cell-based; settings: responsive cell lines; read-out: IC50 for the inhibition of chemotaxis
Excerpt: A6 had no effect on the migration of CD44-negative A2780 cells. A6 was also shown to interfere with the binding of only one (DF1485) of the four anti-CD44 antibodies tested.

[2] = system: CD44-positive SKOV3 cells; experiment: Boyden chamber migration; assay type: cell-based, human; settings: compared to untreated control
[3] = system: CD44-negative A2780 cells; experiment: Boyden chamber migration; assay type: cell-based, human
B16-F10 cells = experiment: Inhibition of chemotaxis; assay type: cell-based; settings: read-out: IC50 for A6 inhibition of chemotaxis
[4] = system: CD44-expressing SKOV3 cells; experiment: Cell binding to HA coated plates; assay type: cell-based, human
Excerpt: (§1) A6 shares sequence homology with the Link Module of CD44. […] This effect was blocked with the anti-CD44 antibody, IM7. […] Without being bound by any particular A6 can induce conformational changes in CD44, resulting in either a lowered affinity of the epitope for DF1485, or preventing DF1485 from binding CD44. The binding of A6 to CD44 results in a modulation of CD44-mediated intracellular signaling and establishes a functional relationship between A6 and CD44 in CD44 expressing cells.

[5] = system: CD44-nonexpressing A278 cells; experiment: Cell binding to HA coated plates; assay type: cell-based
Excerpt: as §1

[6] = system: MDA-MB-231 human mammary carcinoma xenografts; experiment: Mammary carcinoma xenograft model; parameters: species or system BALB/c (nu/nu) mice; settings: mouse, in vivo
Procedure: Mammary: The effects of A6 in mammary tumor and metastasis models were investigated. […] The effect of A6 in Fisher rats inoculated with Mat B-111 syngeneic mammary carcinoma cells was evaluated.

[7] = system: human PC-3M-LN4 prostate cancer cells; experiment: Orthotopic prostate cancer metastasis model; assay type: in vivo, BALB/c (nu/nu) mice
Procedure: Prostate: A model of prostate cancer was used to evaluate the antimetastatic effect of A6 in mice. Metastases to lymph nodes were measured following the orthotopic injection of human PC-3M-LN4 prostate cancer cells into the prostates of BALB/c (nu/nu) mice.

[8] = system: ZAP-70pos B-cell lymphocytes isolated from individual patients; experiment: CLL xenograft model; assay type: in vivo, immune-deficient mice; settings: vs vehicle control
[9] = system: choroidal neovascularization; experiment: Laser-induced choroidal neovascularization (CNV); assay type: in vivo, mouse; settings: compared to the non-treated control group
[10] = system: choroidal neovascularization; experiment: Laser-induced choroidal neovascularization (CNV); assay type: in vivo, rat; settings: subcutaneous injections; compared to non-treated controls
[11] = system: choroidal neovascularization; experiment: Laser-induced choroidal neovascularization (CNV); assay type: in vivo, primate; settings: intravitreal administration; relative to control
retina of diabetic rats = experiment: Streptozotocin diabetic retinopathy model; parameters: species or system Brown Norway rats; settings: rat, in vivo
[12] = system: retinal microvascular endothelial cell invasion; experiment: HGF-induced retinal endothelial cell invasion; assay type: cell-based
Excerpt: The effect of A6 on HGF and its receptor, c-Met, in retinal angiogenesis has been examined.

A2780 cells = experiment: CCK-8 cytotoxicity, A6 plus DDP; assay type: cell-based, human; settings: A6 1, 10 or 100 μM 1 h, then 1 h A6 plus DDP; 10% FBS
Procedure: Study Conditions. Drugs: DDP (3.33 mM stock) and A6 (109.8 mM stock); Drug exposure time: 1 hour; Cell line: A2780 and its DDP-resistant subline A2780/CP; Media: RPMI 1640 plus 10% FBS containing 1 mM penicillin/streptomycin; Cytotoxicity Assays: CCK-8 (Cell Counting Kit 8—Dojindo Molecular Technologies).
Tissue culture plates containing 96-well plates were seeded with 4000 cells in 100 μl of media per well. The wells on rows A-D were seeded with A2780 cells, while the wells on rows E-H were seeded with A2780/CP cells. The cells were allowed to attach overnight in a 37° C. in 5% CO2 incubator. Approximately 24 h later medium was removed by aspiration and the cells were exposed to 0, 1, 10 or 100 μM A6 peptide in 100 μl. After 1 h, increasing concentrations of DDP were added to triplicate wells in 100 μl medium. Following a 1 h exposure to the combination of A6 and DDP, the drugs were removed by aspiration. The cells were then allowed to grow for 96 h following which the plates were assayed for relative cell growth with the CCK-8 assay.

A2780/CP cells = experiment: CCK-8 cytotoxicity, A6 plus DDP; assay type: cell-based, human; settings: A6 1, 10 or 100 μM 1 h, then 1 h A6 plus DDP; 10% FBS
Procedure: Study Conditions. Drugs: […] Drug exposure time: 1 hour; Cell line: […] Media: RPMI 1640 plus 10% FBS containing 1 mM penicillin/streptomycin; Cytotoxicity Assays: CCK-8 (Cell Counting Kit 8-Dojindo Molecular Technologies). Tissue culture plates containing 96-well plates were seeded with 4000 cells in 100 μl of media per well. The wells on rows A-[…] cells, while the wells on rows E-[…]/CP cells. […] After 1 h, increasing concentrations of DDP were added to triplicate wells in 100 μl medium. […] The cells were then allowed to grow for 96 h following which the plates were assayed for relative cell growth with the CCK-8 assay. CCK-8 assay. Five μl of CCK-8 stain was added to each well and the plate was incubated at 37° C. incubator for 4 h. The plate was read with a microplate reader at a wavelength of 450 nm. (See FIGS. 5A-5D and FIG. 6). The assay was performed using triplicate wells for each DDP concentration. The data in the tables below is the optical density in the well which is a function of the number of live cells remaining at the end of the 96 h growth period.

IGROV-1/CP cells = experiment: CCK-8 cytotoxicity, A6 plus DDP; assay type: cell-based, human; settings: A6 1, 10 or 100 μM 1 h, then 1 h A6 plus DDP
Procedure: Study Conditions. Drugs: […] Drug exposure time: 1 hour; Cell line: IGROV-1 and its DDP-resistant subline IGROV-1/CP; Media: RPMI 1640 plus 10% FBS containing 1 mM penicillin/streptomycin; Cytotoxicity Assays: CCK-8 (Cell Counting Kit 8—Dojindo Molecular Technologies). Tissue culture plates containing 96-well plates were seeded with 4000 cells in 100 μl of media per well. The wells on rows A-D were seeded with IGROV-1 cells, while the wells on rows E-H were seeded with IGROV-1/CP cells. […] After 1 h, increasing concentrations of DDP were added to triplicate wells in […] medium. […] The cells were then allowed to grow for 96 h following which the plates were assayed for relative cell growth with the CCK-8 assay. CCK-8 assay. […] of CCK-8 stain was added to each well and the plate was incubated at 37° C. incubator for 4 h. The plate was read with a microplate reader at a wavelength of 450 nm. (See FIGS. 7A-7D and FIG. 8). The assay was performed using triplicate wells for each DDP concentration. The data in the tables below is the optical density in the well which is a function of the number of live cells remaining at the end of the 96 h growth period.

breast cancer = experiment: Compassionate use, breast cancer patient; assay type: in vivo, human; settings: A6 150 mg/day for 9 years, after Taxol 268 mg daily for 2 weeks
Procedure: A6 was administered in combination with paclitaxel as a compassionate use.

[13] = Clinical safety profile of A6 (summary); settings: human, in vivo
[14] = system: human CLL B-cell lymphocytes; experiment: CLL B-cell lymphocytes in vitro

## Ac-KPSSPPEE-NH2 [A6, Ac-KPSSPPEE-NH2]
[1]
  IC50: 10 to 100 nM
[2]
  inhibition of migration: > 85%
[3]
  effect on migration: no effect
B16-F10 cells
  IC50: 29 nM
[4]
  binding of cells to HA coated plates: increase the binding
[5]
  binding of cells to HA coated plates: neither A6 nor IM7 had any effect
[6]
  metastasis: An inhibition of metastasis was noted
[7]; more than 70% in the control group
  percentage of mice with lymph node metastases: ≥ 22%
[7]; mouse, in vivo
  reduction of lymph node volume: ≤ 70%
[8]
  reduction in CLL burden: up to 90%
[9]
  inhibition of new vessel formation: 95%
[10]
  reduction in CNV: 70%
[11]
  reduction in CNV: 71%
Retina of diabetic rats
  increase in microvascular permeability in the retina: inhibits the increase
  loss of vascular endothelial (VE)-cadherin: prevents the loss
[12]
  HGF-induced retinal endothelial cell invasion: reduced to control levels
A2780 cells
  modulation of sensitivity to DDP: failed to modulate the sensitivity
A2780/CP cells
  modulation of sensitivity to DDP: failed to modulate the sensitivity
IGROV-1/CP cells
  modulation of sensitivity to DDP: failed to modulate the sensitivity
Breast cancer
  clinical outcome: complete remission
[13]
  safety profile: no immunogenicity, no dose-limiting toxicities, no serious side-effects
Ovarian cancer; in vivo
  CA125 response: not associated with CA125 response
  complete responses: no complete responses
  patients achieving stable disease: 36%
  safety profile: comparable to that of control (placebo) treatment
Ovarian cancer; placebo 49 days
  median progression free survival (PFS): 100 days
[14]
  cytotoxicity in vitro: direct, dose-dependent, cytotoxicity
  expression of CD44 and ZAP-70: down modulates
